{"source": "patent US12486253B2", "about": "“Therapeutics for the degradation of mutant BRAF” (C4 THERAPEUTICS, INC., priority 2021, dated 2025)", "key": {"[1]": {"biological_target": "BRAF V600E, test compound and CRBN ternary complex (Homo sapiens, UniProt P15056+Q96SW2, V600E)", "sequence (P15056 whole entry V600E)": "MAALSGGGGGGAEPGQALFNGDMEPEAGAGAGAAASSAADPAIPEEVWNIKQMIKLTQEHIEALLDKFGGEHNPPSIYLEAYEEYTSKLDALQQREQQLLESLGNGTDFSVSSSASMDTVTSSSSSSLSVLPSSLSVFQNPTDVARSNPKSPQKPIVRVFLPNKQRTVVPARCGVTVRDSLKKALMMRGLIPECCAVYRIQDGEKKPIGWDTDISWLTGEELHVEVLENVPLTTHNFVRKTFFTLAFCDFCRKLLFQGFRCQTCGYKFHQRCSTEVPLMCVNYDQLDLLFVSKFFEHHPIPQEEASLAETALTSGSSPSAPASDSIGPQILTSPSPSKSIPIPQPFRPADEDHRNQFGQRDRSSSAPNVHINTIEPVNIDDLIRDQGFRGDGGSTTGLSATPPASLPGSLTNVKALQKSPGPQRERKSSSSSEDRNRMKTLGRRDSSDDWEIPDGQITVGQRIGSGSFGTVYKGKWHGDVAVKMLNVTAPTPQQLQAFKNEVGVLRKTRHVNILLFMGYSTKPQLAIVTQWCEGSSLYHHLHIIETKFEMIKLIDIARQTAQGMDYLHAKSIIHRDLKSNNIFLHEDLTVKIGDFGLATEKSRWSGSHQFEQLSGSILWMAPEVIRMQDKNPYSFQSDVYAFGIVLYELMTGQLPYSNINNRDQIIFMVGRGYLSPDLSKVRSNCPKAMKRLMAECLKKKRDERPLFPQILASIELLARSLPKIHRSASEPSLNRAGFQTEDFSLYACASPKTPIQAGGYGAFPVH", "sequence (Q96SW2 whole entry)": "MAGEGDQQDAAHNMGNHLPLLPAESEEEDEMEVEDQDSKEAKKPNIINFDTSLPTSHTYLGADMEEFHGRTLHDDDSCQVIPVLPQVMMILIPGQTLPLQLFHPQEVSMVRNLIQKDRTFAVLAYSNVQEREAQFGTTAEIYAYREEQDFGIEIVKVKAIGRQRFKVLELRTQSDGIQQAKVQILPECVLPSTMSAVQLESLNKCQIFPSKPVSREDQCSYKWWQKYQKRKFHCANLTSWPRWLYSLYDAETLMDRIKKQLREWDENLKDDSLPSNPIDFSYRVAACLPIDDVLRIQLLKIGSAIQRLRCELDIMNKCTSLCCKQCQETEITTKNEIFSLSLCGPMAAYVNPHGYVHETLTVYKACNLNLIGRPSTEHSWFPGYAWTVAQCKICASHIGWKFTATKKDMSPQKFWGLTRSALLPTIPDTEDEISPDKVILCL", "assay": "AlphaLISA ternary complex formation assay", "type": "binding", "details": "GST-BRAF V600E 16 nM, His-CRBN 64 nM", "protocol": "Formation of the ternary complex between BRAF V600E, test compound and CRBN was quantified using AlphaLISA® assay. GST-tagged BRAF V600E and His-tagged CRBN were labeled with a donor/acceptor AlphaLISA® pair, and complex formation was monitored via a change in the Alpha-signal. Signal from the control wells was used as a normalization control.\nCharacterization of the ternary complex formation between GST-BRAF V600E, Compound 157 and his-CRBN was carried out using an AlphaLISA® assay. Compounds were dispensed from serially diluted DMSO stock in low dead volume plates into gray 384-well AlphaPlates using acoustic technology to 1% of total reaction volume. Compounds were arranged vertically in rows A through P. Concentration series were horizontal: columns 1-11, and then duplicates in columns 12-22.\nExcitation of the donor beads results in generation of singlet oxygen molecules. […]\nA 10 μL mixture containing 16 nM of BRAF V600E and 64 nM of CRBN in 50 mM HEPES (pH 7.4), 200 mM NaCl, 1 mM TCEP, 0.05% Pluronic Acid, 0.1% BSA was added to the wells containing test compounds (columns 1-22) and the negative control wells (column 23). […] Plates were then read on an Envision plate reader with an appropriate AlphaLISA® filter set."}, "BRAF (wild type)": {"biological_target": "T1, BRAF (wild type) (Homo sapiens, UniProt P15056)", "T1 construct": "host or cells: JURKAT", "T1 sequence (P15056 whole entry)": "as the sequence (P15056 whole entry V600E) above, with E600V counted along it", "assay": "Global proteomics profiling, JURKAT cells", "type": "cell-based", "details": "300 nM, 24 hours", "protocol": "Each cell line was treated in duplicate with either DMSO or Compound 157 (final concentration 300 nM) for 24 hours in an incubator at 37° C. with 5% CO2. After the 24-hour incubation, cells were harvested, washed twice with PBS, and snap frozen in liquid nitrogen. Samples were re-suspended in lysis buffer [8 M urea, 50 mM HEPES (pH 8.5), 50 mM NaCl, 1× protease inhibitor cocktail] and lysed by sonication at 4° C. with 85% amplitude in a pulse setting with 30 seconds on and 30 seconds off for a total sonication time of 5 minutes. Lysates were centrifuged at maximum speed for 10 minutes at 4° C. and the supernatant collected, reduced for 1 hour at room temperature with 5 mM TCEP, and the cysteine residues were then alkylated with 15 mM iodoacetamide (room temperature, in dark, 30 minutes). Protein content was extracted by methanol-chloroform precipitation and subsequent ice-cold acetone washes. Protein pellets were resuspended in 8 M urea, 50 mM HEPES (pH 8.5) buffer and protein concentrations were measured by BCA assay. […]\nFor peptide tandem mass tag (TMT) labeling, 100 μg of peptides per sample was prepared at […] concentration in 200 mM HEPES (pH 8.5), 30% acetonitrile (ACN) and each the specific TMT reagent. […] TMT reporter ion intensities were quantified by extracting the signal-to-noise ratio for each. […]"}, "ERK phosphorylation": {"tested_on": "ERK phosphorylation", "assay": "ERK phosphorylation (pERK) in A375 cells", "type": "cell-based"}}}
{"smiles": "CCN(C)S(=O)(=O)Nc1ccc(F)c(Oc2ccc3ncn([C@H]4COC5(CCN(C(=O)CC6(O)CCN(c7cc8c(cc7F)c(N7CCC(=O)NC7=O)nn8C)CC6)CC5)C4)c(=O)c3c2)c1C#N", "note": "[Compound 157, (3R)-3-[6-[2-cyano-3-[[ethyl(methyl)sulfamoyl]amino]-6-fluorophenoxy]-4-oxoquinazolin-3-yl]-8-[2-[1-[3-(2,4-dioxo-1,3-diazinan-1-yl)-5-fluoro-1-methylindazol-6-yl]-4-hydroxypiperidin-4-yl]acetyl]-1-oxa-8-azaspiro[4.5]decane]", "values": [{"measurement": "Ternary complex formation (concentration dependence)", "setting": "[1]", "value": "characteristic bell-shaped curve"}, {"measurement": "BRAF protein level change", "setting": "BRAF (wild type)", "value": "unchanged"}, {"measurement": "ERK phosphorylation by western blot", "setting": "ERK phosphorylation", "value": "significantly drops off"}]}
